# Data: patent publication US9802899B2, “Heterocyclic compounds as pesticides” (BAYER CROPSCIENCE AG, priority 2012, dated 2017)
# Assay: Determination of the log P values by HPLC (formic acid method)
# Assay type: physicochemical
# Conditions: reversed-phase HPLC column (C 18), reversed-phase column (C 18), acidic range (pH 3.4), 55° C.
# Experimental: 1) Description of Method for Determination of the Log P Values (Formic Acid Method)
# Eluents for determination in the acidic range (pH 3.4):
# Eluent A: acetonitrile+1 ml of formic acid/liter. Eluent B: water+0.9 ml of formic acid/liter.
# The lambda max values were determined in the maxima of the chromatographic signals using the UV spectra from 200 nm to 400 nm.
row,SMILES,chromatographic logP
1,"O=C(Nc1ccn(-c2nc(F)c(F)cc2F)n1)c1ccccc1Br [Compound I-1-164, 2-Bromo-N-[1-(3,5,6-trifluoropyridin-2-yl)-1H-pyrazol-3-yl]benzamide]",2.68
2,"O=C(Nc1ccn(-c2ncnc(F)c2F)n1)c1ccccc1C(F)(F)F [Compound I-1-169, N-[1-(5,6-Difluoropyrimidin-4-yl)-1H-pyrazol-3-yl]-2-(trifluoromethyl)benzamide]",2.62
3,"O=C(Nc1ccn(-c2nccnc2F)n1)c1ccccc1Cl [Compound I-1-174, 2-Chloro-N-[1-(3-fluoropyrazin-2-yl)-1H-pyrazol-3-yl]benzamide]",2.03
4,"Nc1cc(F)c(-n2ccc(NC(=O)c3ccccc3C(F)(F)F)n2)c(F)c1 [Compound I-1-227, N-[1-(4-Amino-2,6-difluorophenyl)-1H-pyrazol-3-yl]-2-(trifluoromethyl)benzamide]",2.32
5,"N#Cc1cc(F)c(-n2ccc(NC(=O)c3ccccc3C(F)(F)F)n2)c(F)c1 [Compound I-1-228, N-[1-(4-Cyano-2,6-difluorophenyl)-1H-pyrazol-3-yl]-2-(trifluoromethyl)benzamide]",2.66
6,"O=C(Nc1ccn(-c2c(F)cc([N+](=O)[O-])cc2F)n1)c1ccccc1C(F)(F)F [Compound I-1-229, N-[1-(2,6-Difluoro-4-nitrophenyl)-1H-pyrazol-3-yl]-2-(trifluoromethyl)benzamide]",2.86
7,"O=C(Nc1ccn(-c2c(F)cc(C(F)(F)F)cc2F)n1)c1ccccc1C(F)(F)F [Compound I-1-230, N-{1-[2,6-Difluoro-4-(trifluoromethyl)phenyl]-1H-pyrazol-3-yl}-2-(trifluoromethyl)benzamide]",3.39

# Same assay, conditions: reversed-phase column (C 18), acidic range (pH 3.4), 55° C.
row,SMILES,log P
1,O=C(Nc1ccn(-c2ncc(F)cc2F)n1)c1ccncc1C(F)(F)F [Compound I-1-153],1.96
2,O=C(Nc1ccn(-c2ncc(F)cc2F)n1)c1cncnc1C(F)(F)F [Compound I-1-154],2.00
3,O=C(Nc1ccn(-c2ncc(F)cc2F)n1)C1=C(C(F)(F)F)OCCS1 [Compound I-1-155],2.35
4,Cn1cc(C(=O)Nc2ccn(-c3ncc(F)cc3F)n2)c(C(F)(F)F)c1 [Compound I-1-156],2.31
5,Cc1noc(C(F)F)c1C(=O)Nc1ccn(-c2ncc(F)cc2F)n1 [Compound I-1-157],2.33
6,Cn1nc(C(F)(F)F)c(C(=O)Nc2ccn(-c3ncc(F)cc3F)n2)c1F [Compound I-1-158],2.36
7,O=C(Nc1ccn(-c2ncc(F)cc2F)n1)c1snc(Cl)c1Cl [Compound I-1-159],3.06
8,Cc1nnsc1C(=O)Nc1ccn(-c2ncc(F)cc2F)n1 [Compound I-1-160],1.91
9,O=C(Nc1ccn(-c2nc(F)c(F)cc2F)n1)c1ccccc1C(F)(F)F [Compound I-1-162],2.78
10,O=C(Nc1ccn(-c2nc(F)c(F)cc2F)n1)c1ccccc1Cl [Compound I-1-163],2.64
11,O=C(Nc1ccn(-c2nc(F)c(F)cc2F)n1)c1ccccc1I [Compound I-1-165],3.04
12,O=C(Nc1ccn(-c2nc(F)c(F)cc2F)n1)c1c(F)cccc1F [Compound I-1-166],2.51
13,O=C(Nc1ccn(-c2nc(F)c(F)cc2F)n1)c1ncccc1C(F)(F)F [Compound I-1-167],3.88
14,O=C(Nc1ccn(-c2ncccn2)n1)c1ccccc1Br [Compound I-1-168],1.72
15,O=C(Nc1ccn(-c2ncnc(F)c2F)n1)c1ccccc1Br [Compound I-1-170],2.46
16,O=C(Nc1ccn(-c2ncnc(F)c2F)n1)c1c(F)cccc1F [Compound I-1-171],2.29
17,O=C(Nc1ccn(-c2nccnc2F)n1)c1ccccc1C(F)(F)F [Compound I-1-173],2.24
18,O=C(Nc1ccn(-c2nccnc2F)n1)c1ccccc1Br [Compound I-1-175],2.09
19,O=C(Nc1ccn(-c2nccnc2F)n1)c1ccccc1I [Compound I-1-176],2.18
20,O=C(Nc1ccn(-c2nccnc2F)n1)c1c(F)cccc1F [Compound I-1-177],1.94
21,O=C(Nc1ccn(-c2nccnc2F)n1)c1ncccc1C(F)(F)F [Compound I-1-178],1.77
22,CS(=O)(=O)c1ccccc1-n1ccc(NC(=O)c2ccccc2C(F)(F)F)n1 [Compound I-1-179],2.13
23,CS(=O)(=O)c1ccccc1-n1ccc(NC(=O)c2cccnc2C(F)(F)F)n1 [Compound I-1-180],2.00

row,SMILES,log P
1,CS(=O)(=O)c1ccccc1-n1ccc(NC(=O)c2c(F)cccc2F)n1 [Compound I-1-181],1.86
2,CS(=O)(=O)c1ccccc1-n1ccc(NC(=O)c2ccccc2Br)n1 [Compound I-1-182],2.00
3,O=C(Nc1ccn(-c2ncc(F)cc2Cl)n1)c1ccccc1C(F)(F)F [Compound I-1-183],2.64
4,CS(=O)(=O)c1ccccc1-n1ccc(NC(=O)c2ccccc2I)n1 [Compound I-1-184],2.10
5,Cc1nn(C)c(C)c1C(=O)Nc1ccn(-c2ccccc2C(F)(F)F)n1 [Compound I-1-185],2.16
6,O=C(Nc1ccn(-c2cccc(Cl)c2Cl)n1)c1ccccc1Br [Compound I-1-187],3.41
7,O=C(Nc1ccn(-c2cccc(Cl)c2Cl)n1)c1ccccc1Cl [Compound I-1-188],3.38
8,O=C(Nc1ccn(-c2cccc(F)c2F)n1)c1ccccc1Cl [Compound I-1-189],3.01
9,O=C(Nc1ccn(-c2cc(F)c(F)cc2F)n1)c1ccccc1C(F)(F)F [Compound I-1-191],4.04
10,O=C(Nc1ccn(-c2cc(F)c(F)cc2F)n1)c1cccnc1C(F)(F)F [Compound I-1-192],3.42
11,O=C(Nc1ccn(-c2cc(F)c(F)cc2F)n1)c1ccccc1C(F)(F)F [Compound I-1-193],3.73
12,O=C(Nc1ccn(-c2cc(F)c(F)cc2F)n1)c1ccccc1Br [Compound I-1-194],3.99
13,O=C(Nc1ccn(-c2cc(F)c(F)cc2F)n1)c1ccccc1Cl [Compound I-1-195],3.94
14,O=C(Nc1ccn(-c2cc(F)c(F)cc2F)n1)c1ccccc1I [Compound I-1-196],4.10
15,O=C(Nc1ccn(-c2ccc(Cl)cc2Cl)n1)c1ccccc1C(F)(F)F [Compound I-1-197],3.51
16,O=C(Nc1ccn(-c2ccc(Cl)cc2Cl)n1)c1ccccc1C(F)(F)F [Compound I-1-198],3.25
17,O=C(Nc1ccn(-c2ccc(Cl)cc2Cl)n1)c1ccccc1Br [Compound I-1-199],3.44
18,O=C(Nc1ccn(-c2ccc(Cl)cc2Cl)n1)c1ccccc1Cl [Compound I-1-200],3.40
19,CCc1cc(NC(=O)c2ccccc2C(F)(F)F)nn1-c1ccc(F)cc1F [Compound I-1-201],4.15
20,Cc1cc(NC(=O)c2ccccc2C(F)(F)F)nn1-c1ccc(F)cc1F [Compound I-1-202],3.78
21,Cc1cc(NC(=O)c2cccnc2C(F)(F)F)nn1-c1ccc(F)cc1F [Compound I-1-203],3.19
22,CCc1cc(NC(=O)c2cccnc2C(F)(F)F)nn1-c1ccc(F)cc1F [Compound I-1-204],3.58
23,Cc1cc(NC(=O)c2c(F)cccc2F)nn1-c1ccc(F)cc1F [Compound I-1-206],3.42

row,SMILES,log P
1,CCc1cc(NC(=O)c2c(F)cccc2F)nn1-c1ccc(F)cc1F [Compound I-1-207],3.84
2,Cc1cc(NC(=O)c2ccccc2Br)nn1-c1ccc(F)cc1F [Compound I-1-208],3.63
3,O=C(Nc1ccn(-c2ccc(F)cc2F)n1)c1ccccc1Br [Compound I-1-209],2.95
4,Cc1cc(NC(=O)c2ccccc2Cl)nn1-c1ccc(F)cc1F [Compound I-1-212],3.58
5,CCc1cc(NC(=O)c2ccccc2Cl)nn1-c1ccc(F)cc1F [Compound I-1-213],3.99
6,Cc1cc(NC(=O)c2ccccc2I)nn1-c1ccc(F)cc1F [Compound I-1-214],3.73
7,CCc1cc(NC(=O)c2ccccc2I)nn1-c1ccc(F)cc1F [Compound I-1-215],4.15
8,Cc1c(F)cnc(F)c1-n1ccc(NC(=O)c2ccccc2C(F)(F)F)n1 [Compound I-1-217],3.06
9,O=C(Nc1ccn(-c2cc(F)ccc2F)n1)c1cccnc1Cl [Compound I-1-218],2.28
10,O=C(Nc1ccn(-c2cc(F)ccc2F)n1)c1ccsc1I [Compound I-1-219],3.25
11,O=C(Nc1ccn(-c2cc(F)ccc2F)n1)c1ncccc1Cl [Compound I-1-220],3.00
12,O=C(Nc1ccn(-c2cc(F)ccc2F)n1)c1occc1I [Compound I-1-222],3.14
13,O=C(Nc1ccn(-c2cc(F)cnc2F)n1)c1ccccc1C(F)(F)F [Compound I-1-224],2.72
14,O=C(Nc1ccn(-c2cc(F)cnc2F)n1)c1ccccc1Cl [Compound I-1-225],2.59
15,O=C(Nc1ccn(-c2c(Cl)cccc2Cl)n1)c1cccnc1OC(F)(F)F [Compound I-1-226],3.21
16,Cc1nn(C(F)F)c(C(=O)Nc2ccn(-c3c(F)cccc3F)n2)c1F [Compound I-1-231],2.89
17,Cc1cc(C(=O)Nc2ccn(-c3c(F)cccc3F)n2)n(C)n1 [Compound I-1-232],2.10
18,Cc1nn(C)c(C(=O)Nc2ccn(-c3c(F)cccc3F)n2)c1[N+](=O)[O-] [Compound I-1-233],2.23
19,Cc1c([N+](=O)[O-])c(C(=O)Nc2ccn(-c3c(F)cccc3F)n2)nn1C [Compound I-1-234],2.03
20,CCn1ncc(I)c1C(=O)Nc1ccn(-c2c(F)cccc2F)n1 [Compound I-1-235],2.76
21,Cn1ncnc1C(=O)Nc1ccn(-c2c(F)cccc2F)n1 [Compound I-1-236],1.93
22,Cn1nc(C(F)(F)C(F)(F)F)c(C(F)(F)F)c1C(=O)Nc1ccn(-c2c(F)cccc2F)n1 [Compound I-1-237],3.84
